The structures appear in SMILES notation. Where two headings read alike, the source gives them in different places.

In data set [1] the test system is primary human plated hepatocytes. In words: Metabolic stability in human plated hepatocytes. To be noted: incubation up to 48 h, HSK7653 at 0.05 μM.
Procedure: Reactions were stopped by removing the plates from the incubator and mixing the incubation solution with 600 μL of ice-cold stop solution (acetonitrile) at the corresponding sampling time points.
A short description of data set [2]: Apparent permeability in Caco-2 monolayer cell lines. The format is in vitro ADME. To be noted: human, Caco-2, positive controls. The procedure:
All experiments were performed in triplicate and analyzed by high-performance liquid chromatography with tandem mass spectrometry (HPLC-MS/MS). The apparent permeability coefficient (Papp) of each compound under the corresponding concentration was calculated according to Eq. (1) and listed as follows:(1) Papp=dQ/dt×1/A×C0 Where Papp was the apparent permeability coefficient (cm/s × 10^−6), dQ/dt (pmol/second) was the rate at which the compound appears in the receiver side, C0 (nM) was the initial concentration of the compound in the donor side, and A (cm^2) represented the surface area of the cell monolayer.

With `CC[C@@]1(c2ccccc2)NC(=O)N(C)C1=O` [S-mephenytoin], the “Half-life (t1/2) in human hepatocytes” value in data set [1] is reported as 21.7 h. As for `C[C@H]1O[C@@H](O[C@H]2[C@@H](O)C[C@H](O[C@H]3[C@@H](O)C[C@H](O[C@H]4CC[C@@]5(C)[C@H](CC[C@@H]6[C@@H]5C[C@@H](O)[C@]5(C)[C@@H](C7=CC(=O)OC7)CC[C@]65O)C4)O[C@@H]3C)O[C@@H]2C)C[C@H](O)[C@@H]1O` [digoxin, reference compound], the Papp at 2 h in data set [2] (read-out: Papp) was determined as 1.85 ×10⁻⁶ cm/s.

`CC(C)NCC(O)COc1cccc2ccccc12` (stereo not shown) [propranolol, reference compound]: the Papp at 2 h in data set [2] (apical pH: basolateral pH 7.4: 7.4, read-out: Caco-2 permeability, calibration input) was 33 ×10⁻⁶ cm/s; in data set [2] (read-out: Papp) it was 33 ×10⁻⁶ cm/s.

The values above are taken from PMC10485820 (European Journal of Pharmaceutical Sciences, 2023).
